In ChEMBL document CHEMBL5154834, “Anti-neuroinflammatory effects of novel 5,6-dihydrobenzo[h]quinazolin-2-amine derivatives in lipopolysaccharide-stimulated BV2 microglial cells” (Eur J Med Chem, 2022):

Tests used:
[1] = tested on: BV-2; experiment: Anti-neuroinflammatory activity in mouse BV-2 cells assessed as inhibition of LPS-stimulated TNF-alpha production at 2.5 ug/ml measured after 24 hrs by ELISA; format: functional; set-up: scale not given: the % may be the effect or the level left; settings: dose 2.5 µg/ml
[2] = Cytotoxicity against mouse BV-2 cells assessed as survival rate at 2.5 ug/ml incubated for 24 hrs by MTT assay; format: toxicity, cell-based; settings: at 2.5 µg/mL, read-out: Activity
[3] = tested on: BV-2; experiment: Anti-neuroinflammatory activity in mouse BV-2 cells assessed as inhibition of LPS-stimulated IL-6 production at 2.5 ug/ml measured after 24 hrs by ELISA; format: functional; set-up: scale not given: the % may be the effect or the level left; settings: dose 2.5 µg/ml
[4] = tested on: BV-2; experiment: Anti-neuroinflammatory activity in mouse BV-2 cells assessed as inhibition of LPS-induced ASC expression level at 1.25 to 5 ug/ml and measured after 24 hrs by western blot analysis; format: functional, cell-based; settings: dose 1.25-5 µg/ml, DDE = dose-dependent effect
[5] = tested on: BV-2; experiment: Neuroprotective activity against LPS-induced mouse BV-2 cell death assessed as late apoptotic cells at 2.5 uM and measured after 24 hrs by Annexin V-FITC/PI staining based flow cytometry method (reference value: 0%); format: functional
[6] = tested on: BV-2; experiment: Neuroprotective activity against LPS-induced mouse BV-2 cell death assessed as reversal of apoptosis at 5 uM and measured after 24 hrs by Annexin V-FITC/PI staining based flow cytometry method (reference value: 91.6%); format: functional
[7] = tested on: BV-2; experiment: Anti-neuroinflammatory activity in mouse BV-2 cells assessed as inhibition of LPS-induced caspase-1 expression level at 1.25 to 5 ug/ml and measured after 24 hrs by western blot analysis; format: functional, cell-based; settings: dose 1.25-5 µg/ml, DDE = dose-dependent effect
[8] = tested on: BV-2; experiment: Neuroprotective activity against LPS-induced mouse BV-2 cell death assessed as reversal of apoptosis at 2.5 uM and measured after 24 hrs by Annexin V-FITC/PI staining based flow cytometry method (reference value: 91.6%); format: functional
[9] = tested on: BV-2; experiment: Anti-neuroinflammatory activity in mouse BV-2 cells assessed as reduction of LPS-stimulated IkappaBalpha phosphorylation level at 1.25 to 5 ug/ml and measured after 24 hrs by westernblot analysis; format: functional, cell-based; settings: dose 1.25-5 µg/ml, DDE = dose-dependent effect
[10] = tested on: BV-2; experiment: Anti-neuroinflammatory activity in mouse BV-2 cells assessed as inhibition of LPS-induced NLRP3 expression level at 1.25 to 5 ug/ml and measured after 24 hrs by western blot analysis; format: functional, cell-based; settings: dose 1.25-5 µg/ml, DDE = dose-dependent effect
[11] = tested on: BV-2; experiment: Neuroprotective activity against LPS-induced mouse BV-2 cell death assessed as late apoptotic cells at 5 uM and measured after 24 hrs by Annexin V-FITC/PI staining based flow cytometry method (reference value: 0%); format: functional

Row | SMILES | Activity [1] | viability at 24 h, 2.5 ug/ml [2] | Activity [3] | other results
1 | COc1cc(/C=C2\CCc3ccc(F)cc3C2=O)cc(OC)c1 | 40.8% | 87.8% | 46.1% | –
2 | COc1cccc(-c2nc(N)nc3c2CCc2ccc(Br)cc2-3)n1 | 44.8% | 88.9% | 55.8% | –
3 | COc1ccc2c(c1)C(=O)/C(=C/c1cccc(OC)n1)CC2 | 40.6% | 90.4% | 54% | –
4 | COc1cc(-c2nc(N)nc3c2CCc2ccc(Br)cc2-3)cc(OC)c1OC | 39.9% | 93.1% | 43.7% | –
5 | COc1ccc(/C=C2\CCc3ccc(Br)cc3C2=O)cn1 | 32.5% | 89.5% | 45.5% | –
6 | COc1cncc(-c2nc(N)nc3c2CCc2ccc(Br)cc2-3)c1 | 49.4% | 93.2% | 43.3% | –
7 | COc1cncc(-c2nc(N)nc3c2CCc2ccc(F)cc2-3)c1 | 60.8% | 97.4% | 80.2% | Activity [4]: Dde; Activity [5]: 30.7%; Activity [6]: 70.7%; Activity [7]: Dde; Activity [8]: 54.8%; Activity [9]: Dde; Activity [10]: Dde; Activity [11]: 13%
8 | COc1cncc(/C=C2\CCc3ccc(OC)cc3C2=O)c1 | 29.7% | 92.3% | 43.7% | –
9 | COc1cncc(/C=C2\CCc3ccc(F)cc3C2=O)c1 | 33.3% | 94.4% | 46.4% | –
10 | COc1cncc(-c2nc(N)nc3c2CCc2ccc(OC)cc2-3)c1 | 47.3% | 94.7% | 53.8% | –
11 | COc1ccc(/C=C2\CCc3ccc(F)cc3C2=O)cn1 | 34.3% | 92.7% | 47% | –
12 | COc1ccc2c(c1)C(=O)/C(=C/c1ccc(OC)cc1C(F)(F)F)CC2 | 40% | 88.3% | 44.9% | –
13 | COc1cccc(/C=C2\CCc3ccc(F)cc3C2=O)n1 | 41.7% | 85.8% | 61.1% | –
14 | S=C(S)N1CCCC1 [PYRROLIDINE DITHIOCARBAMATE] | 55.9% | – | 64% | –
15 | COc1ccc(-c2nc(N)nc3c2CCc2ccc(Br)cc2-3)cn1 | 43.8% | 95.4% | 40.6% | –
16 | COc1ccc2c(c1)-c1nc(N)nc(-c3cccc(OC)n3)c1CC2 | 44.9% | 94.8% | 44.1% | –

Row | SMILES | Activity [1] | viability at 24 h, 2.5 ug/ml [2] | Activity [3] | other results
17 | COc1ccc(-c2nc(N)nc3c2CCc2ccc(F)cc2-3)cn1 | 43.3% | 89.6% | 43.9% | –
18 | COc1cncc(/C=C2\CCc3ccc(Br)cc3C2=O)c1 | 35.9% | 94.9% | 47% | –
19 | COc1cccc(/C=C2\CCc3ccc(Br)cc3C2=O)n1 | 31.9% | 94.7% | 44.9% | –
20 | COc1cccc(/C=C2\CCc3ccc(F)cc3C2=O)c1 | 34% | 90.3% | 35.2% | –
21 | COc1cccc(-c2nc(N)nc3c2CCc2ccc(F)cc2-3)n1 | 50.3% | 95.4% | 66.9% | –
22 | COc1ccc2c(c1)-c1nc(N)nc(-c3ccc(OC)c(C(F)(F)F)c3)c1CC2 | 46.7% | 90.3% | 44.2% | –
23 | COc1ccc2c(c1)C(=O)/C(=C/c1ccc(OC)nc1)CC2 | 23.8% | 93.1% | 45% | –
24 | COc1cc(/C=C2\CCc3ccc(Br)cc3C2=O)cc(OC)c1OC | 33.1% | 93.5% | 35.9% | –
25 | COc1ccc2c(c1)C(=O)/C(=C/c1ccc(OC)c(C(F)(F)F)c1)CC2 | 32.8% | 94.4% | 44.4% | –
26 | COc1ccc2c(c1)-c1nc(N)nc(-c3ccc(OC)cc3C(F)(F)F)c1CC2 | 38.2% | 89.9% | 54.3% | –
27 | COc1cccc(-c2nc(N)nc3c2CCc2ccc(F)cc2-3)c1 | 53.8% | 95% | 66.6% | –
28 | COc1ccc2c(c1)-c1nc(N)nc(-c3ccc(OC)nc3)c1CC2 | 42.7% | 87.5% | 43.7% | –
29 | COc1cc(OC)cc(-c2nc(N)nc3c2CCc2ccc(F)cc2-3)c1 | 45.3% | 95.4% | 51.7% | –
30 | COc1ccc(-c2nc(N)nc3c2CCc2ccc(F)cc2-3)cc1C(F)(F)F | 42.4% | 91% | 43% | –
31 | COc1ccc(/C=C2\CCc3ccc(F)cc3C2=O)cc1C(F)(F)F | 38.6% | 94.7% | 42.3% | –
